Measurements from patent US10314841B2, “Substituted pyrazoles as IRAK inhibitors” (Merck Patent GmbH, priority 2014, dated 2019).

Key:
[1] = target: T1, IRAK1 (His-TEV-IRAK1 (194-712)) (Homo sapiens, UniProt P51617); test: IRAK1 enzymatic assay; type: biochemical; details: human recombinant His-TEV-IRAK1, ATP 1 μM, 3 hours at 30° C., FlashPlate
T1 construct: His-TEV-IRAK1 (194-712); His (N); TEV cleavage site (N)
Protocol: IRAK1 Enzymatic Assay IRAK1 is a human purified recombinant enzyme (His-TEV-IRAK1 (194-712)). In this assay, IRAK-1 hydrolyses ATP and autophosphorylates. Measurement of IRAK-1 inhibition was performed in streptavidin coated 384 well FlashPlate (PerkinElmer #SM[…]). His-TEV-IRAK-1 (15 ng/well), ATP (1 μ[…]]ATP 0.25 μCi/well) and compounds in DMSO (range of concentrations from 20 μM to 1 nM) or controls (2% DMSO) were incubated for 3 hours at 30° C. in assay buffer: Hepes pH7.0 50 mM, Fatty acid-free BSA 0.1%, Dithiothreitol DTT 2 mM, MgCl2 10 mM, EGTA 0.5 mM, Triton-X-100 0.01%. Kinase reaction was stopped by addition of EDTA. Supernatant was discarded, plates were washed three times with 150 mM NaCl and radioactivity was then measured in a Microbeta Trilux reader.

IRAK4 (His-TEV-IRAK4) = target: T2, IRAK4 (His-TEV-IRAK4) (Homo sapiens, UniProt Q9NWZ3); test: IRAK4 enzymatic assay; type: biochemical; details: human recombinant His-TEV-IRAK4, ATP 2 μM, STK1-biotin peptide 300 nM, 3 hours at 30° C., FlashPlate
T2 construct: His (N); TEV cleavage site (N)
T2 sequence (Q9NWZ3 1-460): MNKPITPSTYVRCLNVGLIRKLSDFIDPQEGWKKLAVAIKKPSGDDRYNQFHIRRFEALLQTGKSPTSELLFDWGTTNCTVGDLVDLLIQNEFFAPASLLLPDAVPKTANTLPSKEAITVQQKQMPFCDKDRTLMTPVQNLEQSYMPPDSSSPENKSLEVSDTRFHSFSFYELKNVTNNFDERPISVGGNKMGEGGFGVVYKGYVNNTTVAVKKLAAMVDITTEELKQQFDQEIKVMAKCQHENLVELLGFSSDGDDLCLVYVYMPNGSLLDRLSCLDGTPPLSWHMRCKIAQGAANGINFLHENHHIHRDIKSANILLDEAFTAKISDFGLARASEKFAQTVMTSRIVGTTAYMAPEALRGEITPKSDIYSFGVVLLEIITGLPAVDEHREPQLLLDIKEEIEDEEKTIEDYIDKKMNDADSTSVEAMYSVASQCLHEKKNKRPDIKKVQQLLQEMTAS
Protocol: IRAK4 Enzymatic Assay IRAK4 is a human purified recombinant enzyme (His-TEV-[…] (194-712). IRAK4 hydrolyses ATP, autophosphorylates and phosphorylates a Serine/Threonine generic peptidic substrate (STK: 61 ST1BLC from CisBio International based in Bagnols/Cèze FR). Measurement of IRAK-4 inhibition was performed in streptavidin coated 384 well FlashPlate (PerkinElmer #SM[…]). His-TEV-IRAK4 (20 ng/well), ATP (2 μM, [^33P]ATP 0.25 μCi/well), STK1-biotin peptide (300 nM) and compounds in DMSO (range of concentrations from 20 μM to 1 nM) or controls (2% DMSO) were incubated for 3 hours at 30° C. in assay buffer: Hepes pH7.0 50 mM, Fatty acid-free BSA 0.1%, Dithiothreitol DTT 2 mM, MgCl2 10 mM, EGTA 0.5 mM, Tween-20 0.01%, MnCl2 5 mM. Kinase reaction was stopped by addition of EDTA. Supernatant was discarded, plates were washed three times with 150 mM NaCl and radioactivity was then measured in a Microbeta Trilux reader.

T1 sequence (P51617 194-712): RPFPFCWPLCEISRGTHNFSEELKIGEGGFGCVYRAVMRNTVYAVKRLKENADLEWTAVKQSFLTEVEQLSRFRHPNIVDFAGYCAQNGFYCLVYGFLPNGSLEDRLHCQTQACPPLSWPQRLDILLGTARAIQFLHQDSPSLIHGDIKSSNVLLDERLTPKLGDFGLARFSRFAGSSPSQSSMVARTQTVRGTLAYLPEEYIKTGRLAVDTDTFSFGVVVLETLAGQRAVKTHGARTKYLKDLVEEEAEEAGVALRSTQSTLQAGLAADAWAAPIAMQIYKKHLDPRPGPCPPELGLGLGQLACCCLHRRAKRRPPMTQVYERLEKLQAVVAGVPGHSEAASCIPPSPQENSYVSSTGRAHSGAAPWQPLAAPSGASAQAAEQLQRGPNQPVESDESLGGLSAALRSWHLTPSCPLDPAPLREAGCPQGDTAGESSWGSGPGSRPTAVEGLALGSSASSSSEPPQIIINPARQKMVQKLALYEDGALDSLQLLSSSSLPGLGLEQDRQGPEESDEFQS

Row | Structure (SMILES) | IC50 [1] [nM] | IC50 (IRAK4 (His-TEV-IRAK4)) [nM]
1 | Cn1cc(-c2cccc(-c3ncc(-c4cnn(C5CCCN(C(=O)OC(C)(C)C)C5)c4)cn3)c2)cn1 (centres unmarked) [Compound 7, 3-(4-{2-[3-(1-Methyl-1H-pyrazol-4-yl)-phenyl]-pyrimidin-5-yl}-pyrazol-1-yl)-piperidine-1-carboxylic acid tert-butyl ester] | 100 to 1000 | 100 to 1000
2 | CC(=O)N1CCC(n2cc(-c3cnc(-c4cccc(-c5cnn(C)c5)c4)nc3)cn2)C(CO)C1 (mixture of isomers) [Compound 22, 1-[3-Hydroxymethyl-4-(4-{2-[3-(1-methyl-1H-pyrazol-4-yl)-phenyl]-pyrimidin-5-yl}-pyrazol-1-yl)-piperidin-1-yl]-ethanone] | 100 to 1000 | < 100
3 | COCC1CNCCC1n1cc(-c2cnc(-c3cccc(-c4cnn(C)c4)c3)nc2)cn1 (centres unmarked) [Compound 29, 5-[1-(3-Methoxymethyl-piperidin-4-yl)-1H-pyrazol-4-yl]-2-[3-(1-methyl-1H-pyrazol-4-yl)-phenyl]-pyrimidine] | 1000 to 20000 | 100 to 1000
4 | CN1CCCC(n2cc(-c3cnc(-c4cccc(-c5cnn(C)c5)c4)nc3)cn2)CC1=O (centres unmarked) [Compound 24, 1-Methyl-4-(4-{2-[3-(1-methyl-1H-pyrazol-4-yl)-phenyl]-pyrimidin-5-yl}-pyrazol-1-yl)-azepan-2-one] | 100 to 1000 | < 100
5 | Cn1cc(-c2cccc(-c3ncc(-c4cnn(C5CCN(C(=O)OC(C)(C)C)CC5)c4)cn3)c2)cn1 [Compound 8, 4-(4-{2-[3-(1-Methyl-1H-pyrazol-4-yl)-phenyl]-pyrimidin-5-yl}-pyrazol-1-yl)-piperidine-1-carboxylic acid tert-butyl ester] | 100 to 1000 | 100 to 1000
6 | CN1[C@H]2CC[C@@H]1C(F)[C@@H](n1cc(-c3cnc(-c4cccc(-c5cnn(C)c5)c4)nc3)cn1)C2 (some centres unmarked) [Compound 20, 2-Fluoro-8-methyl-3-(4-{2-[3-(1-methyl-1H-pyrazol-4-yl)-phenyl]-pyrimidin-5-yl}-pyrazol-1-yl)-8-aza-bicyclo[3.2.1]octane] | 100 to 1000 | 100 to 1000
7 | Cn1cc(-c2cccc(-c3ncc(-c4cnn(CCNC(=O)OC(C)(C)C)c4)cn3)c2)cn1 [Compound 6, [2-(4-{2-[3-(1-Methyl-1H-pyrazol-4-yl)-phenyl]-pyrimidin-5-yl}-pyrazol-1-yl)-ethyl]-carbamic acid tert-butyl ester] | 100 to 1000 | 100 to 1000
8 | Cn1cc(-c2cccc(-c3ncc(-c4cnn([C@H]5C[C@@H]6CC[C@@H](N6)C5F)c4)cn3)c2)cn1 (some centres unmarked) [Compound 19, 2-Fluoro-3-(4-{2-[3-(1-methyl-1H-pyrazol-4-yl)-phenyl]-pyrimidin-5-yl}-pyrazol-1-yl)-8-aza-bicyclo[3.2.1]octane] | < 100 | < 100
9 | Cn1cc(-c2cccc(-c3ncc(-c4cnn([C@H]5CCC[C@H](N6CCOCC6)C5)c4)cn3)c2)cn1 (relative stereo) [Compound 5, 4-[Trans-3-(4-{2-[3-(1-Methyl-1H-pyrazol-4-yl)-phenyl]-pyrimidin-5-yl}-pyrazol-1-yl)-cyclohexyl]-morpholine] | 100 to 1000 | 100 to 1000
10 | Cn1ccc(-c2cccc(-c3ncc(-c4cnn([C@H]5CC[C@]6(CCC(=O)N6C)CC5)c4)cn3)c2)n1 [Compound 44, 1-Methyl-8-(4-{2-[3-(1-methyl-1H-pyrazol-3-yl)-phenyl]-pyrimidin-5-yl}-pyrazol-1-yl)-1-aza-spiro[4.5]decan-2-one] |  | < 100
11 | C=CC(=O)NCCn1cc(-c2cnc(-c3cccc(-c4cnn(C)c4)c3)nc2)cn1 [Compound 13, N-[2-(4-{2-[3-(1-Methyl-1H-pyrazol-4-yl)-phenyl]-pyrimidin-5-yl}-pyrazol-1-yl)-ethyl]-acrylamide] | 100 to 1000 | 100 to 1000
12 | CN(C)C/C=C/C(=O)N1CCC(n2cc(-c3cnc(-c4cccc(-c5cnn(C)c5)c4)nc3)cn2)CC1 [Compound 47, (E)-4-Dimethylamino-1-[4-(4-{2-[3-(1-methyl-1H-pyrazol-4-yl)-phenyl]-pyrimidin-5-yl}-pyrazol-1-yl)-piperidin-1-yl]-but-2-en-1-one] | 100 to 1000 | 100 to 1000
13 | Cn1cc(-c2cccc(-c3ncc(-c4cnn([C@H]5CC[C@]6(CCC(=O)N6CCO)CC5)c4)cn3)c2)cn1 [Compound 31, 1-(2-Hydroxy-ethyl)-8-(4-{2-[3-(1-methyl-1H-pyrazol-4-yl)-phenyl]-pyrimidin-5-yl}-pyrazol-1-yl)-1-aza-spiro[4.5]decan-2-one] | 100 to 1000 | < 100
14 | CC1COCCC1N1CCC[C@@H](n2cc(-c3cnc(-c4cccc(-c5cnn(C)c5)c4)nc3)cn2)C1 (stereo partly drawn) [Compound 40, 2-[3-(1-Methyl-1H-pyrazol-4-yl)-phenyl]-5-{1-[(R)-1-(3-methyl-tetrahydro-pyran-4-yl)-piperidin-3-yl]-1H-pyrazol-4-yl}-pyrimidine] | 100 to 1000 | 100 to 1000
15 | O[C@H]1CC[C@H](n2cc(-c3cnc(-c4cccc(-c5cnn(CCN6CCOCC6)c5)c4)nc3)cn2)CC1 [Compound 30, (1r,4r)-4-[4-(2-{3-[1-(2-Morpholin-4-yl-ethyl)-1H-pyrazol-4-yl]-phenyl}-pyrimidin-5-yl)-pyrazol-1-yl]-cyclohexanol] | 1000 to 20000 | 100 to 1000
16 | CC1COCCC1N1CCC[C@H](n2cc(-c3cnc(-c4cccc(-c5cnn(C)c5)c4)nc3)cn2)C1 (stereo partly drawn) [Compound 39, 2-[3-(1-Methyl-1H-pyrazol-4-yl)-phenyl]-5-{1-[(S)-1-(3-methyl-tetrahydro-pyran-4-yl)-piperidin-3-yl]-1H-pyrazol-4-yl}-pyrimidine] | 100 to 1000 | 100 to 1000
17 | O[C@H]1CC[C@H](n2cc(-c3cnc(-c4cccc(-c5cnn(C6CCNCC6)c5)c4)nc3)cn2)CC1 [Compound 32, 4-(4-{2-[3-(1-Piperidin-4-yl-1H-pyrazol-4-yl)-phenyl]-pyrimidin-5-yl}-pyrazol-1-yl)-cyclohexanol] | 1000 to 20000 | 100 to 1000
18 | Cn1cc(-c2cccc(-c3ncc(-c4cnn(C5CCCNC(=O)C5)c4)cn3)c2)cn1 (centres unmarked) [Compound 23, 4-(4-{2-[3-(1-Methyl-1H-pyrazol-4-yl)-phenyl]-pyrimidin-5-yl}-pyrazol-1-yl)-azepan-2-one] | 100 to 1000 | < 100
19 | Cn1cc(-c2cccc(-c3ncc(-c4cnn(C5CCC(C(=O)O)C5)c4)cn3)c2)cn1 (centres unmarked) [Compound 42, 3-(4-{2-[3-(1-Methyl-1H-pyrazol-4-yl)-phenyl]-pyrimidin-5-yl}-pyrazol-1-yl)-cyclopentanecarboxylic acid] | 1000 to 20000 | 100 to 1000
20 | Cn1cc(-c2cccc(-c3ncc(-c4cnn(C5CCCC(N6CCCC(F)(F)C6)C5)c4)cn3)c2)cn1 (centres unmarked) [Compound 25, 5-{1-[3-(3,3-Difluoro-piperidin-1-yl)-cyclohexyl]-1H-pyrazol-4-yl}-2-[3-(1-methyl-1H-pyrazol-4-yl)-phenyl]-pyrimidine] | 100 to 1000 | < 100
21 | Cn1cc(-c2cccc(-c3ncc(-c4cnn(C5CCCC(O)(CO)C5)c4)cn3)c2)cn1 (centres unmarked) [Compound 1, 1-Hydroxymethyl-3-(4-{2-[3-(1-methyl-1H-pyrazol-4-yl)-phenyl]-pyrimidin-5-yl}-pyrazol-1-yl)-cyclohexanol] | 100 to 1000 | < 100
